Where “and” joins values, the source holds several entries; their conditions need not be identical. Identical values can stand only once.
Tests used:
normal erythrocytes = assay: Reduced glutathione (GSH) in normal human erythrocytes after 3 h incubation; type: cell-based
Source text: (§1) Drug induced haemolysis is a serious complication in persons deficient in G-6-PD enzyme. The presence of reduced glutathione (GSH) in erythrocytes control the level of oxidative metabolites. Therefore, drugs, which cause lesser oxidation of GSH level are safe. […] G-6-PD deficiency was detected by the fluorescent spot screening test and confirmed by the enzyme assay method. Heparinised blood samples were collected from each individual and after centrifugation, the packed cells were washed three times with cold saline. […] GSH levels were estimated by the method of Bentler et al [Improved Method for the Determination of Blood Glutathione, J. Lab.

[1] = Methaemoglobin levels in Beagle dogs after 7-day oral treatment; settings: dog, in vivo, 1.25 mg/kg
Protocol: Colony bred beagle dogs were maintained in the kennel house of the Institute and fed with a standard diet.
Treatment was administered once daily for seven doses (day 0–6), the day of the first dose being day 0. […] 5 ml. blood was collected from beagle dogs on day 0, 3, 7, 13 and 25 using potassium-oxalate crystals as anticoagulant. All the estimations/tests were conducted on the same day of collection of blood. Methaemoglobin was assayed by the method of Evelyn and Malloy (1938, J. Biol. Chem., 126, 655–662).

[2] = test system: P. cynomolgi B gametocytes; assay: Gametocytocidal test: infectivity of gametocytes from treated P. cynomolgi infected Rhesus monkeys to An. stephensi mosquitoes; type: in vivo
Protocol: For the gametocytocidal test, batches of 3–4 day old An. Stephensi were allowed to feed on P. cynomolgi infected Rhesus monkeys at appropriate gametocytaemia level. […] […] Mosquitoes were maintained as 26±1° C. under optimal insectary conditions. The infectivity rate and the oocyst counts were recorded on day 8. Mosquitoes were further maintained in the insectary to record the formation of sporozoites and the absence of sporozoites in some of the batches was also ensured by inoculation of mosquito homogenates into native monkeys.

sporozoites = assay: Infectivity test: mosquito homogenates inoculated into Rhesus monkeys; type: in vivo, P. cynomolgi; settings: 11 batches; 1.87, 2.5, 3.75 and 5.00 mg base/kg; up to 60 days of observations
Protocol: For the gametocytocidal test, batches of 3–4 day old An. Stephensi were allowed to feed on P. cynomolgi infected Rhesus monkeys at appropriate gametocytaemia level. One hour after the control (pretreatment) feeding, compound of formula 1 was administered to the monkeys at 0.63, 1.25, 1.87, 2.5, 3.75 and 5.0 mg/kg in a single dose by oral route. Post-treatment feeding of batches of healthy mosquitoes was done at different times (5–48 hours). Mosquitoes were maintained as 26±1° C. under optimal insectary conditions. The infectivity rate and the oocyst counts were recorded on day 8. Mosquitoes were further maintained in the insectary to record the formation of sporozoites and the absence of sporozoites in some of the batches was also ensured by inoculation of mosquito homogenates into native monkeys.
Infectivity tests were carried out to ensure that there was no sporozoite development in the mosquito batches found negative for oocysts on day 8 following their feeding on drug treated monkeys. Homogenates of 40–50 mosquitoes each from 11 batches fed on gametocyte carrying monkeys treated with compound 1 at 1.87, 2.5, 3.75 and 5.00 mg base/kg were inoculated into native Rhesus monkeys.

[3] = test system: G-6-PD deficient erythrocytes; assay: Reduced glutathione (GSH) in G-6-PD deficient human erythrocytes after 3 h incubation; type: cell-based; settings: 25 and 50 μg/ml of PQ and equivalent doses, P<0.001
Source text: as §1

[4] = test system: developing oocysts of P. cynomolgi; assay: Effect on developing oocysts in An. stephensi mosquitoes (sporontocidal/oocysticidal action); type: in vivo; settings: for % infectivity / No. of mosquitoes infected/dissected / oocyst number gut (Mean ± SD): Day 8 oocyst record
[5] = 0.63 mg/kg single dose, feeding +5 hr
[6] = 0.63 mg/kg single dose, feeding +24 hr
[7] = 0.63 mg/kg single dose, feeding +48 hr
[8] = 0.63 mg/kg single dose, feeding −1 hr (pre-treatment)
[9] = 1.25 mg/kg single dose, feeding +5 hr
[10] = 1.25 mg/kg single dose, feeding +24 hr
[11] = 1.25 mg/kg single dose, feeding +48 hr
[12] = 1.25 mg/kg single dose, feeding −1 hr (pre-treatment)
[13] = 1.87 mg/kg single dose, feeding +24 hr
[14] = 1.87 mg/kg single dose, feeding +48 hr
[15] = 1.87 mg/kg single dose, feeding −1 hr (pre-treatment)
[16] = 3.75 mg/kg single dose, feeding +4 hr
[17] = 3.75 mg/kg single dose, feeding +5 hr
[18] = 3.75 mg/kg single dose, feeding +24 hr
[19] = 3.75 mg/kg single dose, feeding −1 hr (pre-treatment)
[20] = age of infection 24 hr, 50 mg/kg
[21] = age of infection 48 hr, 10 mg/kg
[22] = age of infection 48 hr, 50 mg/kg
[23] = age of infection 72 hr, 10 mg/kg
[24] = age of infection 72 hr, 50 mg/kg
[25] = age of infection 96 hr, 50 mg/kg
[26] = age of infection in mosquitoes 24 hr, fed on monkey given 10 mg/kg at −7 hr

COc1cc(NC(C)CCCN/C(C)=C2/CCOC2=O)c2ncccc2c1 (stereo not drawn) [compound 1, N^1-(3-ethylidinotetrahydrofuran-2-one)-N^4-(6-methoxy-8-quinolinyl)-1,4-pentanediamine]
concentration at which fall in GSH levels reached statistical significance (normal erythrocytes): 31250 ng/mL | GSH (mg %) Mean ± SE (normal erythrocytes; dose 1.25 μg/ml): 44.08 ± 5.80 mg % | GSH (mg %) Mean ± SE (normal erythrocytes; dose 6.25 μg/ml): 42.50 ± 5.85 mg % | increase of Met-Hb values [1]: 1.7 fold | % infectivity [2, 5]: (45.1) % | No. of mosquitoes infected/dissected [2, 5]: 23/51 | Oocyst No. per gut (Mean ± SD) [2, 5]: 10.22 ± 6.8 | % infectivity [2, 6]: (32.61) % | No. of mosquitoes infected/dissected [2, 6]: 15/46 | Oocyst No. per gut (Mean ± SD) [2, 6]: 2.93 ± 2.4 | Parasitaemia/mm^3 Asexual [2, 6]: 30024 /mm^3 | Parasitaemia/mm^3 Gametocytes [2, 6]: 1404 /mm^3 | % infectivity [2, 7]: (0) % | No. of mosquitoes infected/dissected [2, 7]: 0/24 | Oocyst No. per gut (Mean ± SD) [2, 7]: Nil | Parasitaemia/mm^3 Asexual [2, 7]: 23220 /mm^3 | Parasitaemia/mm^3 Gametocytes [2, 7]: 756 /mm^3 | % infectivity [2, 8]: (90.0) % | No. of mosquitoes infected/dissected [2, 8]: 27/30 | Oocyst No. per gut (Mean ± SD) [2, 8]: 86.74 ± 39.2 | Parasitaemia/mm^3 Asexual [2, 8]: 48816 /mm^3 | Parasitaemia/mm^3 Gametocytes [2, 8]: 1728 /mm^3 | oocyst number and percent infectivity compared to control feedings at −1 hr ([2]; 0.63 mg/kg, +5 h and +24 h post-treatment): significant reduction | sporozoites in salivary gland dissections on day 15 ([2]; 0.63 mg/kg, batches fed +5 h and +24 h): presence of sporozoites | oocysts over the midguts ([2]; 0.63 mg/kg, mosquitoes fed at +48 hr): No oocysts were observed | monkeys with marked oocyst decrease at 4–5 hr and no oocysts or sporozoites in batches fed +24 hr and +48 hr ([2]; 1.25 mg/kg): 2/2 | No. of mosquitoes infected/dissected [2, 9]: 12/57 and 15/70 | Oocyst No. per gut (Mean ± SD) [2, 9]: 2.17 ± 1.7 and 2.60 ± 1.7 | % infectivity [2, 10]: (0) % | No. of mosquitoes infected/dissected [2, 10]: 0/36 and 0/30 | Oocyst No. per gut (Mean ± SD) [2, 10]: Nil | % infectivity [2, 11]: (0) % | No. of mosquitoes infected/dissected [2, 11]: 0/24 | Oocyst No. per gut (Mean ± SD) [2, 11]: Nil | Parasitaemia/mm^3 Asexual [2, 11]: 15914 /mm^3 | Parasitaemia/mm^3 Gametocytes [2, 11]: 109 /mm^3 | No. of mosquitoes infected/dissected [2, 12]: 34/38 and 20/47 | Oocyst No. per gut (Mean ± SD) [2, 12]: 22.35 ± 11.8 and 14.40 ± 7.29 | Parasitaemia/mm^3 Gametocytes [2, 12]: 1895 /mm^3 and 1026 /mm^3 | monkeys with marked oocyst decrease at 4–5 hr and no oocysts or sporozoites in batches fed +24 hr and +48 hr ([2]; 1.87 mg/kg): 2/2 | No. of mosquitoes infected/dissected ([2]; 1.87 mg/kg single dose, feeding +4 hr): 6/40 and 18/31 | % infectivity [2, 13]: (0) % | No. of mosquitoes infected/dissected [2, 13]: 0/27 and 0/38 | Oocyst No. per gut (Mean ± SD) [2, 13]: Nil and Nil** | Parasitaemia/mm^3 Gametocytes [2, 13]: 530 /mm^3 and 798 /mm^3 | % infectivity [2, 14]: (0) % | No. of mosquitoes infected/dissected [2, 14]: 0/24 and 0/21 | Oocyst No. per gut (Mean ± SD) [2, 14]: Nil | Parasitaemia/mm^3 Asexual [2, 14]: 7208 /mm^3 and 5130 /mm^3 | Parasitaemia/mm^3 Gametocytes [2, 14]: 212 /mm^3 and 228 /mm^3 | No. of mosquitoes infected/dissected [2, 15]: 25/30 and 23/25 | Parasitaemia/mm^3 Asexual [2, 15]: 33602 /mm^3 and 61560 /mm^3 | Parasitaemia/mm^3 Gametocytes [2, 15]: 1166 /mm^3 and 1026 /mm^3 | monkeys with oocyst development completely blocked in batches fed 4–5 hr and +24 hr post-treatment ([2]; 3.75 mg/kg): 5/5 | % infectivity [2, 16]: (0) % | No. of mosquitoes infected/dissected [2, 16]: 0/25 and 0/21 and 0/41 | Oocyst No. per gut (Mean ± SD) [2, 16]: Nil | % infectivity [2, 17]: (0) % | No. of mosquitoes infected/dissected [2, 17]: 0/30 | Oocyst No. per gut (Mean ± SD) [2, 17]: Nil** | % infectivity [2, 18]: (0) % | No. of mosquitoes infected/dissected [2, 18]: 0/28 and 0/21 and 0/30 and 0/27 | Oocyst No. per gut (Mean ± SD) [2, 18]: Nil and Nil** | No. of mosquitoes infected/dissected [2, 19]: 26/27 and 15/22 and 33/40 and 22/22 | Parasitaemia/mm^3 Asexual [2, 19]: 55728 /mm^3 and 45796 /mm^3 and 68320 /mm^3 and 48336 /mm^3 | monkeys with oocyst development completely blocked in batches fed 4–5 hr and +24 hr post-treatment ([2]; 5.0 mg/kg): 3/3 | time to render mature gametocytes non-infective to mosquitoes ([2]; 3.75 and 5.00 mg/kg): 4 to 5 h | sporozoites in salivary gland dissections, days 14–20 post infective blood meal ([2]; batches with blocked oocyst development (2.5, 3.75, 5.0 mg/kg)): did not show any sporozoites | melting point: 118 to 120 °C | monkeys developing infection after inoculation of homogenates of 40–50 mosquitoes from oocyst-negative batches (sporozoites): None | decrease in GSH level compared to controls [3]: statistically significant | sporontocidal/oocysticidal action on 24–96 hr old oocysts ([4]; 10–50 mg/kg): absence of sporontocidal/oocysticidal action | % infectivity [4, 20]: 85.19% | No. of mosquitoes infected/dissected [4, 20]: 23/27 | oocyst number gut (Mean ± SD) [4, 20]: 67.00 ± 43.58 | % infectivity [4, 21]: 100.0% | No. of mosquitoes infected/dissected [4, 21]: 20/20 | oocyst number gut (Mean ± SD) [4, 21]: 133.20 ± 96.22 | % infectivity [4, 22]: 78.79% | No. of mosquitoes infected/dissected [4, 22]: 26/33 | oocyst number gut (Mean ± SD) [4, 22]: 46.15 ± 36.70 | % infectivity [4, 23]: 88.00% | No. of mosquitoes infected/dissected [4, 23]: 22/25 | oocyst number gut (Mean ± SD) [4, 23]: 20.36 ± 17.81 | % infectivity [4, 24]: 86.21% | No. of mosquitoes infected/dissected [4, 24]: 25/29 | oocyst number gut (Mean ± SD) [4, 24]: 27.16 ± 20.60 | % infectivity [4, 25]: 69.23% | No. of mosquitoes infected/dissected [4, 25]: 18/26 | oocyst number gut (Mean ± SD) [4, 25]: 40.33 ± 27.38 | % infectivity [4, 26]: 85.00% | No. of mosquitoes infected/dissected [4, 26]: 17/20 | oocyst number gut (Mean ± SD) [4, 26]: 144.47 ± 60.35

From patent publication US7183291B2 (Council of Scientific and Industrial Research, priority 1999, dated 2007)
